Like-named read-outs stand apart in the source and are kept apart here.
Tests used:
MTAP-deleted cell line = experiment: viability assay for the MTAP-deleted cell line; type: cell-based
[1] = tested on: HAP1 MTAP-intact cell line; experiment: SDMA in-cell western assay, HAP1 MTAP-intact
[2] = tested on: HAP1 MTAP-deleted cell line; experiment: SDMA in-cell western assay, HAP1 MTAP-deleted; details: for Hap1 MTAP intact/deleted ratio: IC50 ratio between HAP1 MTAP-intact and HAP1 MTAP-deleted cell line
[3] = Homo sapiens, HAP1, viability assay
[4] = Homo sapiens, HAP1, read-out: Hap1 MTAP intact IC50, SDMA in-cell western, HAP1 MTAP-intact cell line
[5] = Homo sapiens, HAP1, read-out: Hap1 MTAP deleted IC50, SDMA in-cell western, HAP1 MTAP-deleted cell line
[6] = Homo sapiens, HAP1, read-out: Hap1 MTAP deleted IC90, SDMA in-cell western, HAP1 MTAP-deleted cell line
[7] = Homo sapiens, HAP1, read-out: Hap1 MTAP intact IC50, SDMA in-cell western assay, HAP1 MTAP-intact cell line
[8] = Homo sapiens, HAP1, read-out: Hap1 MTAP deleted IC50, SDMA in-cell western assay, HAP1 MTAP-deleted cell line
[9] = Homo sapiens, HAP1, read-out: Hap1 MTAP deleted IC90, SDMA in-cell western assay, HAP1 MTAP-deleted cell line

Row | IC50 [1, 4] [nM] | IC50 [2, 5] [nM] | IC90 [2, 6] [nM] | IC50 [1, 7] [nM] | IC50 [2, 8] [nM] | IC90 [2, 9] [nM] | IC50 ([1]; read-out: Hap1 MTAP intact IC50, SDMA in-cell western assay, HAP1 MTAP-intact cell line) [nM] | IC50 ([2]; read-out: Hap1 MTAP deleted IC50, SDMA in-cell western assay, HAP1 MTAP-deleted cell line) [nM] | IC90 ([2]; read-out: Hap1 MTAP deleted IC90, SDMA in-cell western assay, HAP1 MTAP-deleted cell line) [nM] | SMILES | IC50 (MTAP-deleted cell line; [3]) [nM] | Hap1 MTAP intact/deleted ratio ([2]; SDMA in-cell western) | Hap1 MTAP intact/deleted ratio ([2]; SDMA in-cell western assay) | IC50 ([1]; Homo sapiens, HAP1, read-out: Hap1 MTAP intact IC50) [nM] | IC50 (MTAP-deleted cell line; viability assay, read-out: Hap1 MTAP deleted viability IC50) [nM]
1 | > 50 | < 5 | < 75 |  |  |  |  |  |  | C[C@H]1CC[C@H](c2ccc3sc(C4=CCN(C)CC4)nc3c2)N(C(=O)C(=O)Nc2ccn3ccnc3c2)C1 [Compound 157, N-(imidazo[1,2-a]pyridin-7-yl)-2-((2R,5S)-5-methyl-2-(2-(1-methyl-1,2,3,6-tetrahydropyridin-4-yl)benzo[d]thiazol-5-yl)piperidin-1-yl)-2-oxoacetamide] | < 100 | A (“A” indicates an IC50 ratio greater than or equal to 30 fold) |  |  | 
2 |  |  |  | 5 to 50 | < 5 | < 75 |  |  |  | C[C@H]1CC[C@H](c2ccc3c(c2)OCC3)N(C(=O)C(=O)Nc2cnc(N)c3cn[nH]c23)C1 (racemic) [Compound 238] | < 100 |  | A (“A” indicates an IC50 ratio greater than or equal to 30 fold) |  | 
3 |  |  |  | > 50 | < 5 | < 75 |  |  |  | C[C@H]1CC[C@H](C2(C)CC2)N(C(=O)C(=O)Nc2cnc(N)c3cn[nH]c23)C1 (racemic) [Compound 228, N-(4-Amino-1H-pyrazolo[4,3-c]pyridin-7-yl)-2-oxo-2-[rac-(2R,5S)-5-methyl-2-(1-methylcyclopropyl)-1-piperidyl]acetamide] | < 100 |  | A (“A” indicates an IC50 ratio greater than or equal to 30 fold) |  | 
4 | > 50 | 5 to 50 | < 75 |  |  |  |  |  |  | C[C@H]1CC[C@H](c2ccc3sc([C@@H](C)N(C)C)nc3c2)N(C(=O)C(=O)Nc2cncc3cn[nH]c23)C1 (single isomer, unassigned) [Compound 167] | < 100 | A (“A” indicates an IC50 ratio greater than or equal to 30 fold) |  |  | 
5 | > 50 | < 5 | < 75 |  |  |  |  |  |  | C[C@H]1CC[C@H](c2ccc3sc(C4=CCN(C)CC4)nc3c2)N(C(=O)C(=O)Nc2cncc3cn[nH]c23)C1 [Compound 182, 2-((2R,5S)-5-methyl-2-(2-(1-methyl-1,2,3,6-tetrahydropyridin-4-yl)benzo[d]thiazol-5-yl)piperidin-1-yl)-2-oxo-N-(1H-pyrazolo[4,3-c]pyridin-7-yl)acetamide] | < 100 | A (“A” indicates an IC50 ratio greater than or equal to 30 fold) |  |  | 
6 | > 50 | 5 to 50 | > 125 |  |  |  |  |  |  | C[C@H]1CC[C@H](c2ccc3nn(C4CN(C)C4)cc3c2)N(C(=O)C(=O)Nc2cncc3cn[nH]c23)C1 [Compound 66, 2-((2R,5S)-5-methyl-2-(2-(1-methylazetidin-3-yl)-2H-indazol-5-yl)piperidin-1-yl)-2-oxo-N-(1H-pyrazolo[4,3-c]pyridin-7-yl)acetamide] | 100 to 1000 | A (“A” indicates an IC50 ratio greater than or equal to 30 fold) |  |  | 
7 | 5 to 50 | < 5 | < 75 |  |  |  |  |  |  | C[C@H]1CC[C@H](c2ccc3sc([C@H]4C[C@H](N(C)C)C4)nc3c2)N(C(=O)C(=O)Nc2cncc3cn[nH]c23)C1 [Compound 64, 2-((2R,5S)-2-(2-(3-(dimethylamino)cyclobutyl)benzo[d]thiazol-5-yl)-5-methylpiperidin-1-yl)-2-oxo-N-(1H-pyrazolo[4,3-c]pyridin-7-yl)acetamide] | < 100 | B (“B” indicates an IC50 ratio greater than or equal to 15 fold but lower than 30 fold) |  |  | 
8 |  |  |  | 5 to 50 | < 5 | < 75 |  |  |  | C[C@H]1CC[C@H](c2ccc3c(c2)CCN(C)C3)N(C(=O)C(=O)Nc2cnc(N)c3cn[nH]c23)C1 (racemic) [Compound 265, N-(4-Amino-1H-pyrazolo[4,3-c]pyridin-7-yl)-2-oxo-2-[rac-(2R,5S)-5-methyl-2-(2-methyl-3,4-dihydro-1H-isoquinolin-6-yl)-1-piperidyl]acetamide] | < 100 |  | C (“C” indicates an IC50 ratio of less than 15 fold) |  | 
9 |  |  |  |  |  |  | > 50 | < 5 | < 75 | Nc1ncc(NC(=O)C(=O)N2CCCCC2c2cccc(N3CCCC3)c2)c2[nH]ncc12 (single isomer, unassigned) [Compound 271] |  |  | A (“A” indicates an IC50 ratio greater than or equal to 30 fold) |  | < 100
10 |  |  |  | 5 to 50 | < 5 | < 75 |  |  |  | C[C@H]1CC[C@H](c2ccc(CCN(C)C)cc2)N(C(=O)C(=O)Nc2cnc(N)c3cn[nH]c23)C1 (racemic) [Compound 263, N-(4-Amino-2H-pyrazolo[4,3-c]pyridin-7-yl)-2-oxo-2-[rac-(2R,5S)-2-[4-[2-(dimethylamino)ethyl]phenyl]-5-methyl-1-piperidyl]acetamide] | < 100 |  | C (“C” indicates an IC50 ratio of less than 15 fold) |  | 
11 |  |  |  | 5 to 50 | < 5 | < 75 |  |  |  | C[C@H]1CC[C@H](c2ccc3cc(Cl)cnc3c2)N(C(=O)C(=O)Nc2cnc(N)c3cn[nH]c23)C1 (racemic) [Compound 264, N-(4-Amino-1H-pyrazolo[4,3-c]pyridin-7-yl)-2-oxo-2-[rac-(2R,5S)-2-(3-chloro-7-quinolyl)-5-methyl-1-piperidyl]acetamide] | < 100 |  | B (“B” indicates an IC50 ratio greater than or equal to 15 fold but lower than 30 fold) |  | 
12 |  |  |  | 5 to 50 | < 5 | < 75 |  |  |  | C[C@H]1CC[C@H](c2ccc3c(c2)CCO3)N(C(=O)C(=O)Nc2cnc(N)c3cn[nH]c23)C1 (racemic) [Compound 206, N-(4-Amino-1H-pyrazolo[4,3-c]pyridin-7-yl)-2-oxo-2-[rac-(2R,5S)-2-(2,3-dihydrobenzofuran-5-yl)-5-methyl-1-piperidyl]acetamide] | < 100 |  | B (“B” indicates an IC50 ratio greater than or equal to 15 fold but lower than 30 fold) |  | 
13 | > 50 | 5 to 50 | 75 to 125 |  |  |  |  |  |  | CNc1ncc(NC(=O)C(=O)N2C[C@@H](C)CC[C@@H]2c2ccc3scnc3c2)c2[nH]ncc12 [Compound 146, 2-((2R,5S)-2-(benzo[d]thiazol-5-yl)-5-methylpiperidin-1-yl)-N-(4-(methylamino)-1H-pyrazolo[4,3-c]pyridin-7-yl)-2-oxoacetamide] | 100 to 1000 | A (“A” indicates an IC50 ratio greater than or equal to 30 fold) |  |  | 
14 | > 50 | 5 to 50 | < 75 |  |  |  |  |  |  | C[C@H]1CC[C@H](c2cccc(C(F)(F)F)c2)N(C(=O)C(=O)Nc2cnc(N)c3cn[nH]c23)C1 [Compound 138, N-(4-amino-1H-pyrazolo[4,3-c]pyridin-7-yl)-2-((2R,5S)-5-methyl-2-(3-(trifluoromethyl)phenyl)piperidin-1-yl)-2-oxoacetamide] | < 100 | A (“A” indicates an IC50 ratio greater than or equal to 30 fold) |  |  | 

Row | SMILES | IC50 [1, 4] [nM] | IC50 [2, 5] [nM] | IC90 [2, 6] [nM] | IC50 [1, 7] [nM] | IC50 [2, 8] [nM] | IC90 [2, 9] [nM] | IC50 ([1]; read-out: Hap1 MTAP intact IC50, SDMA in-cell western assay, HAP1 MTAP-intact cell line) [nM] | IC50 ([2]; read-out: Hap1 MTAP deleted IC50, SDMA in-cell western assay, HAP1 MTAP-deleted cell line) [nM] | IC90 ([2]; read-out: Hap1 MTAP deleted IC90, SDMA in-cell western assay, HAP1 MTAP-deleted cell line) [nM] | IC50 (MTAP-deleted cell line; [3]) [nM] | Hap1 MTAP intact/deleted ratio ([2]; SDMA in-cell western) | Hap1 MTAP intact/deleted ratio ([2]; SDMA in-cell western assay) | IC50 ([1]; Homo sapiens, HAP1, read-out: Hap1 MTAP intact IC50) [nM] | IC50 (MTAP-deleted cell line; viability assay, read-out: Hap1 MTAP deleted viability IC50) [nM]
15 | CC1OCc2c(NC(=O)C(=O)N3C[C@@H](C)CC[C@@H]3c3ccc4scnc4c3)cnc(N)c21 (mixture of isomers) [Compound 196, N-(4-amino-3-methyl-1,3-dihydrofuro[3,4-c]pyridin-7-yl)-2-oxo-2-[(2R,5S)-2-(1,3-benzothiazol-5-yl)-5-methyl-1-piperidyl]acetamide] |  | 5 to 50 | < 75 |  |  |  |  |  |  | < 100 | C (“C” indicates an IC50 ratio of less than 15 fold) |  | > 50 | 

Source: patent publication US20250163048A1 (Tango Therapeutics, Inc., priority 2022, published 2025)
